Reference: publication PMC10319141, “Imidazoquinolines with improved pharmacokinetic properties induce a high IFNα to TNFα ratio in vitro and in vivo” (Frontiers in Immunology, 2023)

Key:
[1] = test system: TNFα and IFNα in peripheral plasma; assay: Cytokine induction after three consecutive daily s.c. treatments (Figure 6A, C); type: in vivo, mice; details: in words; for type I Interferon concentrations in plasma after the second treatment: repeated daily s.c. treatment; for secretion of TNFα after repeated treatments in comparison with IMQ and RSQ: three daily s.c. treatments
Protocol: Cytokine concentrations in samples were quantified either by ELISA (hTNFα, R&D Systems; hIFNα, Mabtech) or cytometric bead arrays (CBA, LegendPlex mouse anti-virus response panel, BioLegend) according to the manufacturer’s instructions. CBAs were acquired on a ZE5 Cell Analyzer (Bio-Rad) and analyzed using the LegendPlex Software Suite (Qognit/BioLegend). Absorbance of ELISA-samples was quantified using a Versamax microplate reader (Molecular Devices).
Formulation. Test compounds were prepared for application in either 1% Tween 80, 9% PEG400 in ultrapure water (Biowest) (i.v., i.p., p.o. application) or 5 mM citric acid in 0.9% saline (Braun) (subcutaneous application). If compounds were administered subcutaneously, injections were carried out into the neck crease.
Collection of Samples. Mice were bled from the tail vein at various timepoints. Heparin (Sigma) or K2-EDTA (Sigma) was added to blood samples to a final […] concentration of 10-15 Unit or 5 mM. Plasma was generated by centrifugation at 6800xg for 8 min at 4°C and stored at -80°C until analyzed by ELISA or CBA. Animals were sacrificed after the indicated time points by CO2 inhalation. Heart blood and organs for compound quantification by HPLC-MS/MS were collected post mortem and stored at –20°C until extracted as described above.
Dotted lines indicate the time of repeated compound applications. (A) Cytokine levels in pooled tail plasma of mice from individual treatment groups (n=3 per pool and time point), error bars represent range of two replicate measurements. (B) Peripheral blood was collected from the tail vein before, 15, 30 60, 120, 240, 360 and 480 min after s.c. treatment. Compound concentration in peripheral plasma was analyzed by HPLC-MS/MS, data presented as mean ± SD.

[2] = Stability in whole blood, U937 and RPMI; type: in vitro ADME, human; details: 1 µM, 37°C, over 24 h; in words
Protocol: Human blood products used in the in vitro assays (for cell stimulation and stability) were obtained from the center for transfusion medicine in Tübingen, Germany (Zentrum für Klinische Transfusionmedizin Tübingen GmbH, (ethical approval number ZKT-FoPro202106-2305-01). Test compounds (1 µM) in either culture medium (RPMI-1640 medium containing 10% fetal bovine serum, 60 mg/l Penicillin G sodium salt and 100 mg/l Streptomycin sulfate (all Biowest)), human blood (diluted 1:1 with culture medium) or a suspension of 5x10^6 cells/ml U937 in culture medium were incubated at 37°C, 450 rpm on a shaking incubator. At the indicated time points 50 µL of blood, cell suspension or medium were collected and prepared for HPLC-MS/MS-Analysis as detailed below.
All samples were extracted with 3 or 6 volumes acetonitrile containing terbuthylazine as an internal standard (ACN) relative to either sample weight or volume. Liquid samples (plasma, culture medium, cell suspensions in stability experiments) were diluted in either 3 (culture medium, cell suspensions) or 6 (plasma) volumes ACN, pellet and blood samples were extracted by addition of ACN followed by sonication for 5 min. […]
Quantification of analytes was performed on an Agilent 1260/1290 Infinity system fitted with an Agilent C18 Poroshell 120 column (4.6 x 50 mm, 2.7 µm) coupled to a triple quadrupole Sciex API 4000 MS/MS detector. […]

stability in whole blood and cell based (U937) assays [2]	Structure (SMILES)	type I Interferon concentrations in plasma after the second treatment [1]	secretion of TNFα after repeated treatments in comparison with IMQ and RSQ [1]
stable	CCCCc1nc2c(N)nc3ccccc3c2n1CCC1CCN(C(=O)CN(C)CC(=O)N(C)C2CC(C)OC(OC3C(C)C(OC4CC(C)(OC)C(O)C(C)O4)C(C)C(=O)OC(CC)C(C)(O)C(O)C(C)N(C)CC(C)CC3(C)O)C2O)CC1 (stereo not drawn) [A1-mac]	at the limit of detection	remained low
stable	CCCCc1nc2c(N)nc3ccccc3c2n1CC1CCN(C(=O)CN(C)CC(=O)N(C)[C@H]2C[C@@H](C)O[C@@H](O[C@@H]3[C@@H](C)[C@H](O[C@H]4C[C@@](C)(OC)[C@@H](O)[C@H](C)O4)[C@@H](C)C(=O)O[C@H](CC)[C@@](C)(O)[C@H](O)[C@@H](C)N(C)C[C@H](C)C[C@@]3(C)O)[C@@H]2O)CC1 [A2-mac]	–	–
–	CCCCc1nc2c(N)nc3ccccc3c2n1CCC1CCNCC1 [A1]	at the limit of detection	remained low
